Target: T1, NO synthase (Rattus norvegicus, UniProt P29476)
T1 construct: the supernatant was then removed by decantation and frozen in portions at −80° C; from tissue; host or cells: rat cerebellum, 20,000 g supernatant of homogenate
Assay: HTS-NOS assay (NOS assay): conversion of radioactive arginine, cation-exchanger filter plate
Assay type: biochemical
Details: 10 μM
Outline: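 Rat cerebellum supernatant as NOS source, incubated with radiolabelled arginine plus cofactors including NADPH at 25 °C for 5-60 min depending on enzyme activity. Unconverted arginine was trapped on a cation-exchange filter plate, citrulline washed out, and bound arginine counted by scintillation; % inhibition versus no-compound reactions.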

Row | SMILES | HTS-NOS assay: % inhibition (10 μM) [%]
1 | C#[N+]CCCCCCN(C(C)=O)c1c(-c2ccccc2OC)nc2ccc([N+](=O)[O-])cn12 [Example 238, (6-{acetyl-[2-(2-methoxy-phenyl)-6-nitro-imidazo[1,2-a]pyridin-3-yl]-amino}-hexyl)-methylidyne-ammonium] | 52
2 | C#[N+]CCCCCCN(C(C)=O)c1c(-c2ccccc2OC)nc2cc(C)cc(C)n12 [Example 240, (6-{acetyl-[2-(2-methoxy-phenyl)-5,7-dimethyl-imidazo[1,2-a]pyridin-3-yl]-amino}-hexyl)-methylidyne-ammonium] | 61
3 | [C-]#[N+]CCCCCCN(C(C)=O)c1c(-c2cccnc2)nc2cc(C)ccn12 [Example 241, {6-[acetyl-(7-methyl-2-pyridin-3-yl-imidazo[1,2-a]pyridin-3-yl)-amino]-hexyl}-methylidyne-ammonium] | 62
4 | CC(=O)OCc1ccc(-c2nc3cc(C)cc(C)n3c2N(C(C)=O)c2c(C)cccc2C)o1 [Example 243, acetic acid 5-{3-[acetyl-(2,6-dimethyl-phenyl)-amino]-5,7-dimethyl-imidazo[1,2-a]pyridin-2-y}-furan-2-yl methyl ester] | 62
5 | CC(=O)N(c1c(-c2ccccc2C(F)(F)F)nc2ccccn12)C(C)(C)C [Example 245, N-tert-butyl-N-[2-(2-trifluorO-methyl-phenyl)-imidazo[1,2-a]pyridin-3-yl]-acetamide] | 56
6 | CC(=O)OCc1ccc(-c2nc3ncccn3c2N(C(C)=O)C(C)(C)CC(C)(C)C)o1 [Example 249, acetic acid 5-{3-[acetyl-(1,1,3,3-tetramethyl-butyl)-amino]-imidazo[1,2-a]-pyrimidin-2-yl}-furan-2-yl methyl ester] | 54
7 | CC(=O)OCc1ccc(-c2nc3cccc(C)n3c2N(C(C)=O)C2CCCCC2)o1 [Example 260, acetic acid 5-[3-(acetyl-cyclohexyl-amino)-5-methyl-imidazo[1,2-a]pyridin-2-yl]-furan-2-yl methyl ester] | 51
8 | CC(=O)N(c1c(C)cccc1C)c1c(-c2ccccc2C(F)(F)F)nc2ccc(C)cn12 [Example 261, N-(2,6-dimethyl-phenyl)-N-[6-methyl-2-(2-trifluorO-methyl-phenyl)-imidazo[1,2-a]pyridin-3-yl]-acetamide] | 61

Same assay, conditions: read-out: HTS-NOS assay: % inhibition (10 μM)

Row | inhibition at 10 µM [%] | SMILES
9 | 58 | CC(=O)N(c1c(-c2ccc(C)cc2)nc2ccc(C)cn12)C(C)(C)CC(C)(C)C [Example 242, N-(6-methyl-2-p-tolyl-imidazo[1,2-a]pyridin-3-yl)-N-(1,1,3,3-tetramethyl-butyl)-acetamide]
10 | 50 | COC(=O)CN(C(C)=O)c1c(-c2cccc(O)c2)nc2ccc(C)cn12 [Example 244, {acetyl-[2-(3-hydroxy-phenyl)-6-methyl-imidazo[1,2-a]pyridin-3-yl]-amino}-acetic acid methyl ester]
11 | 52 | CC(=O)N(c1c(-c2ccc(C(=O)O)o2)nc2nc(C)ccn12)C(C)(C)CC(C)(C)C [Example 248, 5-{3-[acetyl-(1,1,3,3-tetramethyl-butyl)-amino]-7-methyl-imidazo[1,2-a]-pyrimidin-2-yl}-furan-2-carboxylic acid]
12 | 58 | CC(=O)N(c1c(C)nc2cc(C)ccn12)C(C)(C)CC(C)(C)C [Example 250, N-(2,7-dimethyl-imidazo[1,2-a]pyridin-3-yl)-N-(1,1,3,3-tetramethyl-butyl)-acetamide]
13 | 65 | CCCCN(C(C)=O)c1c(-c2cccc(Cl)c2Cl)nc2ncccn12 [Example 255, N-butyl-N-[2-(2,3-dichloro-phenyl)-imidazo[1,2-a]pyrimidin-3-yl]-acetamide]
14 | 55 | CC(=O)N(c1c(-c2ccc(Cl)s2)nc2ncccn12)C(C)(C)CC(C)(C)C [Example 256, N-[2-(5-chloro-thiophen-2-yl)-imidazo[1,2-a]pyrimidin-3-yl]-N-(1,1,3,3-tetramethyl-butyl)-acetamide]
15 | 60 | CC(=O)N(c1c(-c2c(F)cccc2Cl)nc2ccccn12)C(C)(C)C [Example 258, N-tert-butyl-N-[2-(2-chloro-6-fluoro-phenyl)-imidazo[1,2-a]pyridin-3-yl]-acetamide]
16 | 54 | CCCc1cccc2nc(-c3cccnc3)c(N(C(C)=O)C(C)(C)C)n12 [Example 265, N-tert-butyl-N-(5-propyl-2-pyridin-3-yl-imidazo[1,2-a]pyridin-3-yl)-acetamide]
17 | 53 | CC(=O)N(c1c(-c2ccc(C)s2)nc2ncccn12)C(C)(C)C [Example 266, N-tert-butyl-N-[2-(5-methyl-thiophen-2-yl)-imidazo[1,2-a]pyrimidin-3-yl]-acetamide]
18 | 62 | CC(=O)N(c1c(-c2ccco2)nc2c(C(=O)O)cccn12)C(C)(C)CC(C)(C)C [Example 267, 3-[acetyl-(1,1,3,3-tetramethyl-butyl)-amino]-2-furan-2-yl-imidazo[1,2-a]pyridine-8-carboxylic acid]
19 | 51 | CC(=O)N(c1c(-c2cc(C)c(C)o2)nc2ccc(C)cn12)C(C)(C)C [Example 268, N-tert-butyl-N-[2-(4,5-dimethyl-furan-2-yl)-6-methyl-imidazo[1,2-a]pyridin-3-yl]-acetamide]
20 | 52 | COc1cc(-c2nc3ncccn3c2N(C(C)=O)C2CCCCC2)ccc1OC(C)=O [Example 270, acetic acid 4-[3-(acetyl-cyclohexyl-amino)-imidazo[1,2-a]pyrimidin-2-yl]-2-methoxy-phenyl ester]
21 | 51 | CC(=O)N(c1c(-c2ccc(Br)o2)nc2c(C)cccn12)C(C)(C)CC(C)(C)C [Example 271, N-[2-(5-bromo-furan-2-yl)-8-methyl-imidazo[1,2-a]pyridin-3-yl]-N-(1,1,3,3-tetramethyl-butyl)-acetamide]

Continued, molecule first:

Row | SMILES | inhibition at 10 µM [%]
22 | CC(=O)N(c1c(C)cccc1C)c1c(-c2cc3ccccc3o2)nc2cc(C)ccn12 [Example 239, N-(2-benzofuran-2-yl-7-methyl-imidazo[1,2-a]pyridin-3-yl)-N-(2,6-dimethylphenyl)-acetamide] | 52
23 | CCCCN(C(C)=O)c1c(-c2ccc(F)cc2Cl)nc2ccccn12 [Example 246, N-butyl-N-[2-(2-chloro-4-fluoro-phenyl)-imidazo[1,2-a]pyridin-3-yl]-acetamide] | 55
24 | CC(=O)N(c1c(C)cccc1C)c1c(-c2ccc(Cl)cc2Cl)nc2ccccn12 [Example 247, N-[2-(2,4-dichloro-phenyl)-imidazo[1,2-a]pyridin-3-yl]-N-(2,6-dimethyl-phenyl)-acetamide] | 56
25 | COc1cc(-c2nc3nc(Cl)cc(N)n3c2N(C(C)=O)C2CCCCC2)ccc1OC(C)=O [Example 251, acetic acid 4-[3-(acetyl-cyclohexyl-amino)-5-amino-7-chloro-imidazo[1,2-a]-pyrimidin-2-yl]-2-methoxy-phenyl ester] | 51
26 | COc1cc(-c2nc3nc(C)cc(C)n3c2N(C(C)=O)C2CCCCC2)ccc1OC(C)=O [Example 252, acetic acid 4-[3-(acetyl-cyclohexyl-amino)-5,7-dimethyl-imidazo[1,2-a]-pyrimidin-2-yl]-2-methoxy-phenyl ester] | 53
27 | CC(=O)N(c1c(-c2c(F)cccc2Cl)nc2c(C)cc(Br)cn12)C1CCCCC1 [Example 253, N-[6-bromo-2-(2-chloro-6-fluoro-phenyl)-8-methyl-imidazo[1,2-a]pyridin-3-yl]-N-cyclohexyl-acetamide] | 51
28 | CC(=O)N(c1c(-c2c(F)cccc2Cl)nc2cccc(C)n12)C1CCCCC1 [Example 254, N-[2-(2-chloro-6-fluoro-phenyl)-5-methyl-imidazo[1,2-a]pyridin-3-yl]-N-cyclohexyl-acetamide] | 51
29 | COC(=O)CN(C(C)=O)c1c(C2CCCCC2)nc2cc(C)ccn12 [Example 257, [acetyl-(2-cyclohexyl-7-methyl-imidazo[1,2-a]pyridin-3-yl)-amino]-acetic acid methyl ester] | 56
30 | CC(=O)N(c1c(-c2ccccn2)nc2cc(C)cc(C)n12)C1CCCCC1 [Example 259, N-cyclohexyl-N-(5,7-dimethyl-2-pyridin-2-yl-imidazo[1,2-a]pyridin-3-yl)-acetamide] | 73
31 | CC(=O)N(c1c(-c2ccco2)nc2cc(C)ccn12)C1CCCCC1 [Example 262, N-cyclohexyl-N-(2-furan-2-yl-7-methyl-imidazo[1,2-a]pyridin-3-yl)-acetamide] | 54
32 | CC(=O)N(c1c(-c2ccccn2)nc2cc(C)ccn12)C1CCCCC1 [Example 263, N-cyclohexyl-N-(7-methyl-2-pyridin-2-yl-imidazo[1,2-a]pyridin-3-yl)-acetamide] | 64
33 | CC(=O)N(c1c(-c2ccc(C3OCCO3)o2)nc2cccc(C)n12)C1CCCCC1 [Example 264, N-cyclohexyl-N-[2-(5-[1,3]dioxolan-2-yl-furan-2-yl)-5-methyl-imidazo[1,2-a]-pyridin-3-yl]-acetamide] | 50
34 | CC(=O)N(c1c(-c2cccc(Oc3ccc(Cl)cc3)c2)nc2ccccn12)C1CCCCC1 [Example 269, N-{2-[3-(4-chloro-phenoxy)-phenyl]-imidazo[1,2-a]pyridin-3-yl}-N-cyclohexyl-acetamide] | 51
35 | CC(=O)N(c1c(C)cccc1C)c1c(-c2cccc(O)c2)nc2nc(C)cc(C)n12 [Example 272, N-(2,6-dimethyl-phenyl)-N-[2-(3-hydroxy-phenyl)-5,7-dimethyl-imidazo[1,2-a]-pyrimidin-3-yl]-acetamide] | 54
36 | CC(=O)N(c1c(-c2cccc(Cl)c2Cl)nc2ccccn12)C1CCCCC1 [Example 273, N-cyclohexyl-N-[2-(2,3-dichloro-phenyl)-imidazo[1,2-a]pyridin-3-yl]-acetamide] | 55

Source: patent US20040023972A1, “Use of substituted imidazo[1,2-a]-pyridin-, -pyrimidin-and-pyrazin-3-yl-amine derivatives in the preparation of medicaments for inhibiting NOS” (Gruenenthal GmbH, priority 2000, published 2004)
